According to patent US10285983B2, “3-(1H-pyrrolo[2,3-B]pyridin-2-yl)-1H-pyrazolo[3,4-B] pyridines and therapeutic uses thereof” (Samumed, LLC, priority 2015, dated 2019):

System: primary human fibroblasts derived from IPF patients (LL29 cells)
Test: Inhibition of fibrotic process, αSMA staining in TGF-β1 treated LL29 fibroblasts
Format: cell-based
Details: Fibroblast, 96 h, TGF-β1 20 ng/mL, 4 days; for EC50: % αSMA positive cells; for inhibition at 10 µM: given for EC50 >10 μM, read-out: percent inhibition at 10 μM
Description: Representative compounds were screened using primary human fibroblasts (derived from IPF patients) treated with TGF-β1 to determine their ability to inhibit the fibrotic process.
Primary human fibroblasts derived from IPF patients (LL29 cells) [^1Xiaoqiu Liu, et. al., “Fibrotic Lung Fibroblasts Show Blunted Inhibition by cAMP Due to Deficient cAMP Response Element-Binding Protein Phosphorylation”, Journal of Pharmacology and Experimental Therapeutics (2005), 315(2), 678-687; ^2Watts, K. L., et. al., “RhoA signaling modulates cyclin D1 expression in human lung fibroblasts; implications for idiopathic pulmonary fibrosis”, Respiratory Research (2006), 7(1), 88] were obtained from American Type Culture Collection (ATCC) and expanded in F12 medium supplemented with 15% Fetal Bovine Serum and Penicillin/Streptomycin.
Each compound was dissolved in DMSO as a 10 mM stock and used to prepare compound source plates. Serial dilution (1:2, 11-point dose-response curves from […] to […]) and compound transfer was performed using the ECHO 550 (Labcyte, Sunnyvale, Calif.) into 384-well clear bottom assay plates (Greiner Bio-One) with appropriate DMSO backfill for a final DMSO concentration of 0.1%. LL29 cells are plated at 1,500 cells/well in 80 μL/well F12 medium supplemented with 1% Fetal Bovine Serum. One hour after addition of the cells, TGF-β1 (Peprotech; 20 ng/mL) was added to the plates to induce fibrosis (ref. 1 and 2 above). Wells treated with TGF-β1 and containing DMSO were used as controls. Cells were incubated at 37° C. and 5% CO2 for 4 days. Following incubation for 4 days, SYTOX green nucleic acid stain (Life Technologies [Thermo Fisher Scientific]) was added to the wells at a final concentration of 1 μM and incubated at room temperature for 30 min. Cells were then fixed using 4% formaldehyde (Electron Microscopy Sciences), washed 3 times with PBS followed by blocking and permeabilization using 3% Bovine Serum Albumin (BSA; Sigma) and 0.3% Triton X-100 (Sigma) in PBS. Cells were then stained with antibody specific to α-smooth muscle actin (αSMA; Abcam) (ref. 1 and 2 above) in 3% Bovine Serum Albumin (BSA; Sigma) and 0.3% Triton X-100 (Sigma) in PBS, and incubated overnight at 4° C. Cells were then washed 3 times with PBS, followed by incubation with Alexa Flor-647 conjugated secondary antibody (Life Technologies [Thermo Fisher Scientific]) and DAPI at room temperature for 1 hour. Cells were then washed 3 times with PBS and plates were sealed for imaging. αSMA staining was imaged by excitation at 630 nm and emission at 665 nm and quantified using the Compartmental Analysis program on the CellInsight CX5 (Thermo Scientific). Dead or apoptotic cells were excluded from analysis based on positive SYTOX green staining. % of total cells positive for αSMA were counted in each well and normalized to the average of 11 wells treated with TGF-β1 on the same plate using Dotmatics' Studies Software. The normalized averages (fold change over untreated) of 3 replicate wells for each compound concentration were used to create dose-responses curves and EC50 values were calculated using non-linear regression curve fit in the Dotmatics' Studies Software. For EC50 of >10 μM, the percent inhibition at 10 μM is provided.

Row | Compound | EC50 | inhibition at 10 µM
1 | CC(C)C(=O)Nc1cncc(-c2cnc3[nH]nc(-c4cc5c(-c6ccccc6F)ccnc5[nH]4)c3c2)c1 [Compound 65, N-(5-(3-(4-(2-Fluorophenyl)-1H-pyrrolo[2,3-b]pyridin-2-yl)-1H-pyrazolo [3,4-b]pyridin-5-yl)pyridin-3-yl)isobutyramide] | 0.812 µM | –
2 | O=C(Nc1cncc(-c2cnc3[nH]nc(-c4cc5c(-c6ccncc6)ccnc5[nH]4)c3c2)c1)c1ccccc1 [Compound 123, N-(5-(3-(4-(Pyridin-4-yl)-1H-pyrrolo[2,3-b]pyridin-2-yl)-1H-pyrazolo[3,4-b]pyridin-5-yl)pyridin-3-yl)benzamide] | > 10 µM | 0%
3 | Fc1ccc(-c2ccnc3[nH]c(-c4n[nH]c5ncc(-c6cncc(CN7CCCCC7)c6)cc45)cc23)cc1 [Compound 43, 3-(4-(4-Fluorophenyl)-1H-pyrrolo[2,3-b]pyridin-2-yl)-5-(5-(piperidin-1-ylmethyl)pyridin-3-yl)-1H-pyrazolo[3,4-b]pyridine] | > 10 µM | 0%
4 | Fc1ccc(-c2ccnc3[nH]c(-c4n[nH]c5ncc(-c6cncc(CN7CCC(F)(F)C7)c6)cc45)cc23)cc1 [Compound 54, 5-(5-((3,3-Difluoropyrrolidin-1-yl)methyl)pyridin-3-yl)-3-(4-(4-fluorophenyl)-1H-pyrrolo[2,3-b]pyridin-2-yl)-1H-pyrazolo[3,4-b]pyridine] | 4.88 µM | –
5 | O=C(Nc1cncc(-c2cnc3[nH]nc(-c4cc5c(-c6cccnc6)ccnc5[nH]4)c3c2)c1)C1CC1 [Compound 104, N-(5-(3-(4-(Pyridin-3-yl)-1H-pyrrolo[2,3-b]pyridin-2-yl)-1H-pyrazolo[3,4-b]pyridin-5-yl)pyridin-3-yl)cyclopropanecarboxamide] | > 10 µM | 19.6%
6 | O=C(Nc1cncc(-c2cnc3[nH]nc(-c4cc5cccnc5[nH]4)c3c2)c1)C1CCCC1 [Compound 274, N-(5-(3-(1H-Pyrrolo[2,3-b]pyridin-2-yl)-1H-pyrazolo[3,4-b]pyridin-5-yl)pyridin-3-yl)cyclopentanecarboxamide] | 0.76 µM | –
7 | CN1CCN(c2ccnc3[nH]c(-c4n[nH]c5ncc(-c6cncc(NC(=O)C7CCCCC7)c6)cc45)cc23)CC1 [Compound 247, N-(5-(3-(4-(4-Methylpiperazin-1-yl)-1H-pyrrolo[2,3-b]pyridin-2-yl)-1H-pyrazolo[3,4-b]pyridin-5-yl)pyridin-3-yl)cyclohexanecarboxamide] | 5.03 µM | –
8 | O=C(Nc1cncc(-c2cnc3[nH]nc(-c4cc5c(-c6ccc(F)cc6)ccnc5[nH]4)c3c2)c1)C1CCCCC1 [Compound 51, N-(5-(3-(4-(4-Fluorophenyl)-1H-pyrrolo[2,3-b]pyridin-2-yl)-1H-pyrazolo [3,4-b]pyridin-5-yl)pyridin-3-yl)cyclohexanecarboxamide] | > 10 µM | 1.3%
9 | Cc1ccncc1-c1cnc2[nH]nc(-c3cc4c(-c5ccncc5)ccnc4[nH]3)c2c1 [Compound 117, 5-(4-Methylpyridin-3-yl)-3-(4-(pyridin-4-yl)-1H-pyrrolo[2,3-b]pyridin-2-yl)-1H-pyrazolo[3,4-b]pyridine] | > 10 µM | 52.9%
10 | CC(C)CC(=O)Nc1cncc(-c2cnc3[nH]nc(-c4cc5c(-c6ccc(F)cc6)ccnc5[nH]4)c3c2)c1 [Compound 30, N-(5-(3-(4-(4-Fluorophenyl)-1H-pyrrolo[2,3-b]pyridin-2-yl)-1H-pyrazolo [3,4-b]pyridin-5-yl)pyridin-3-yl)-3-methylbutanamide] | > 10 µM | 12.8%
11 | CC(C)(C)CC(=O)Nc1cncc(-c2cnc3[nH]nc(-c4cc5c(-c6ccccc6F)ccnc5[nH]4)c3c2)c1 [Compound 72, N-(5-(3-(4-(2-Fluorophenyl)-1H-pyrrolo[2,3-b]pyridin-2-yl)-1H-pyrazolo [3,4-b]pyridin-5-yl)pyridin-3-yl)-3,3-dimethylbutanamide] | 0.759 µM | –
12 | c1cc(N2CCCCC2)c2cc(-c3n[nH]c4ncc(-c5cncc(CN6CCCC6)c5)cc34)[nH]c2n1 [Compound 182, 3-(4-(Piperidin-1-yl)-1H-pyrrolo[2,3-b]pyridin-2-yl)-5-(5-(pyrrolidin-1-ylmethyl)pyridin-3-yl)-1H-pyrazolo[3,4-b]pyridine] | > 10 µM | 21.9%
13 | CN(C)CCNc1cc(F)cc(-c2ccnc3[nH]c(-c4n[nH]c5ncc(-c6cncc(NC(=O)C7CCC7)c6)cc45)cc23)c1 [Compound 469, N-(5-(3-(4-(3-((2-(Dimethylamino)ethyl)amino)-5-fluorophenyl)-1H-pyrrolo [2,3-b]pyridin-2-yl)-1H-pyrazolo[3,4-b]pyridin-5-yl)pyridin-3-yl)cyclobutanecarboxamide] | > 10 µM | 0%
14 | O=C(Nc1cncc(-c2cnc3[nH]nc(-c4cc5c(-c6cccc(F)c6)ccnc5[nH]4)c3c2)c1)C1CC1 [Compound 20, N-(5-(3-(4-(3-Fluorophenyl)-1H-pyrrolo[2,3-b]pyridin-2-yl)-1H-pyrazolo [3,4-b]pyridin-5-yl)pyridin-3-yl)cyclopropanecarboxamide] | 2.63 µM | –
15 | O=C(Nc1cncc(-c2cnc3[nH]nc(-c4cc5c(-c6cccs6)ccnc5[nH]4)c3c2)c1)C1CC1 [Compound 356, N-(5-(3-(4-(Thiophen-2-yl)-1H-pyrrolo[2,3-b]pyridin-2-yl)-1H-pyrazolo[3,4-b]pyridin-5-yl)pyridin-3-yl)cyclopropanecarboxamide] | > 10 µM | 0%
16 | CN(C)CCNc1cc(F)cc(-c2ccnc3[nH]c(-c4n[nH]c5ncc(-c6cncc(NC(=O)C(C)(C)C)c6)cc45)cc23)c1 [Compound 456, N-(5-(3-(4-(3-((2-(Dimethylamino)ethyl)amino)-5-fluorophenyl)-1H-pyrrolo [2,3-b]pyridin-2-yl)-1H-pyrazolo[3,4-b]pyridin-5-yl)pyridin-3-yl)pivalamide] | > 10 µM | 0%
17 | Fc1cccc(-c2ccnc3[nH]c(-c4n[nH]c5ncc(-c6cccnc6)cc45)cc23)c1 [Compound 4, 3-(4-(3-Fluorophenyl)-1H-pyrrolo[2,3-b]pyridin-2-yl)-5-(pyridin-3-yl)-1H-pyrazolo[3,4-b]pyridine] | 2.72 µM | –
18 | c1cc(-c2cnc3[nH]nc(-c4cc5c(-c6ccncc6)ccnc5[nH]4)c3c2)ccn1 [Compound 130, 5-(Pyridin-4-yl)-3-(4-(pyridin-4-yl)-1H-pyrrolo[2,3-b]pyridin-2-yl)-1H-pyrazolo[3,4-b]pyridine] | > 10 µM | 20.5%
19 | Fc1ccc(-c2ccnc3[nH]c(-c4n[nH]c5ncc(-c6cncnc6)cc45)cc23)cc1 [Compound 55, 3-(4-(4-Fluorophenyl)-1H-pyrrolo[2,3-b]pyridin-2-yl)-5-(pyrimidin-5-yl)-1H-pyrazolo[3,4-b]pyridine] | > 10 µM | 1.8%
20 | Fc1cccc(-c2ccnc3[nH]c(-c4n[nH]c5ncc(-c6ccccn6)cc45)cc23)c1 [Compound 28, 3-(4-(3-Fluorophenyl)-1H-pyrrolo[2,3-b]pyridin-2-yl)-5-(pyridin-2-yl)-1H-pyrazolo[3,4-b]pyridine] | > 10 µM | 52%
21 | CC(C)Nc1cncc(-c2cnc3[nH]nc(-c4cc5c(-c6cccnc6)ccnc5[nH]4)c3c2)c1 [Compound 96, N-Isopropyl-5-(3-(4-(pyridin-3-yl)-1H-pyrrolo[2,3-b]pyridin-2-yl)-1H-pyrazolo[3,4-b]pyridin-5-yl)pyridin-3-amine] | 1.56 µM | –
